Assay results: PubChem BioAssay AID1259407 (Chemical Carcinogenesis Research Information System (CCRIS), 2018)
Activity calls are given as the source filed them. How the calls were made is not given here.

Tested on: CCRIS mutagenicity, Ames/micronucleus/aberration tests
Test: CCRIS mutagenicity studies
[1] = Test System: AMES SALMONELLA TYPHIMURIUM, Strain/Indicator: TA98, Metabolic Activation: NONE, Method: PREINCUBATION
[2] = Test System: AMES SALMONELLA TYPHIMURIUM, Strain/Indicator: TA98, Metabolic Activation: NONE, Method: STANDARD PLATE
[3] = Test System: AMES SALMONELLA TYPHIMURIUM, Strain/Indicator: TA100, Metabolic Activation: NONE, Method: STANDARD PLATE
[4] = Test System: AMES SALMONELLA TYPHIMURIUM, Strain/Indicator: TA100, Metabolic Activation: NONE, Method: PREINCUBATION
[5] = Test System: AMES SALMONELLA TYPHIMURIUM, Strain/Indicator: TA1535, Metabolic Activation: NONE, Method: PREINCUBATION
[6] = Test System: AMES SALMONELLA TYPHIMURIUM, Strain/Indicator: TA1537, Metabolic Activation: NONE, Method: PREINCUBATION

Measured: mutagenic call

O=NN1CCCCCC1
active: Test System: AMES SALMONELLA TYPHIMURIUM, Strain/Indicator: TA100, Metabolic Activation: RABBIT, LIVER, S-9, Method: PREINCUBATION active; positive | Test System: AMES SALMONELLA TYPHIMURIUM, Strain/Indicator: TA1530, Metabolic Activation: RABBIT, LIVER, S-9, Method: PREINCUBATION active; positive | Test System: UDS RABBIT LUNG CLARA CELLS, Strain/Indicator: THY INCORP, Metabolic Activation: NONE, Method: LIQUID SCINTILLATION COUNTING active; positive
inactive: Test System: AMES SALMONELLA TYPHIMURIUM, Strain/Indicator: TA100, Metabolic Activation: RABBIT, LUNG MACROPHAGES, Method: PREINCUBATION inactive; negative | Test System: AMES SALMONELLA TYPHIMURIUM, Strain/Indicator: TA100, Metabolic Activation: RABBIT, LUNG, CLARA CELLS, Method: PREINCUBATION inactive; negative | Test System: AMES SALMONELLA TYPHIMURIUM, Strain/Indicator: TA100, Metabolic Activation: RABBIT, LUNG, TYPE II CELLS, Method: PREINCUBATION inactive; negative | Test System: AMES SALMONELLA TYPHIMURIUM, Strain/Indicator: TA1530, Metabolic Activation: RABBIT, LUNG MACROPHAGES, Method: PREINCUBATION inactive; negative | Test System: AMES SALMONELLA TYPHIMURIUM, Strain/Indicator: TA1530, Metabolic Activation: RABBIT, LUNG, CLARA CELLS, Method: PREINCUBATION inactive; negative | Test System: AMES SALMONELLA TYPHIMURIUM, Strain/Indicator: TA1530, Metabolic Activation: RABBIT, LUNG, TYPE II CELLS, Method: PREINCUBATION inactive; negative | Test System: UDS RABBIT LUNG MACROPHAGES, Strain/Indicator: THY INCORP, Metabolic Activation: NONE, Method: LIQUID SCINTILLATION COUNTING inactive; negative | Test System: UDS RABBIT LUNG TYPE II CELLS, Strain/Indicator: THY INCORP, Metabolic Activation: NONE, Method: LIQUID SCINTILLATION COUNTING inactive; negative

Cc1ccc2nc3n(C)c4ccc(C)cc4c(C)c-3c2c1
active: Test System: AMES SALMONELLA TYPHIMURIUM, Strain/Indicator: TA98, Metabolic Activation: RAT, LIVER, S-9, AROCLOR 1254, Method: STANDARD PLATE active; positive

Cc1cnc2cc(CO)c3c(nc(N)n3C)c2n1
active: Test System: AMES SALMONELLA TYPHIMURIUM, Strain/Indicator: TA98, Metabolic Activation: S-9 active; positive | Test System: AMES SALMONELLA TYPHIMURIUM, Strain/Indicator: TA98, Metabolic Activation: S-9, Method: PREINCUBATION active; positive | Test System: AMES SALMONELLA TYPHIMURIUM, Strain/Indicator: TA100, Metabolic Activation: S-9, Method: PREINCUBATION active; positive | Test System: AMES SALMONELLA TYPHIMURIUM, Strain/Indicator: YG1024, Metabolic Activation: S-9 active; positive | Test System: AMES SALMONELLA TYPHIMURIUM, Strain/Indicator: YG1024, Metabolic Activation: S-9, Method: PREINCUBATION active; positive

O=[N+]([O-])c1ccc2ccc3c([N+](=O)[O-])c4ccccc4c4ccc1c2c34
active: Test System: AMES SALMONELLA TYPHIMURIUM, Strain/Indicator: TA98(1,8-DNP6), Metabolic Activation: NONE active; positive | Test System: AMES SALMONELLA TYPHIMURIUM, Strain/Indicator: TA98(NR), Metabolic Activation: NONE active; positive | Test System: AMES SALMONELLA TYPHIMURIUM, Strain/Indicator: TA98(NR), Metabolic Activation: NONE, Method: PREINCUBATION active; positive | Test System: AMES SALMONELLA TYPHIMURIUM, Strain/Indicator: TA98, Metabolic Activation: NONE active; positive | [1] active; positive | [2] active; positive | [3] active; positive

O=C(Nc1ccc(Br)cc1)c1cc(Br)cc(Br)c1O
inactive: [2] inactive; negative | Test System: AMES SALMONELLA TYPHIMURIUM, Strain/Indicator: TA98, Metabolic Activation: RAT, LIVER, S-9, KANECHLOR 400, Method: STANDARD PLATE inactive; negative | [3] inactive; negative | Test System: AMES SALMONELLA TYPHIMURIUM, Strain/Indicator: TA100, Metabolic Activation: RAT, LIVER, S-9, KANECHLOR 400, Method: STANDARD PLATE inactive; negative | Test System: AMES SALMONELLA TYPHIMURIUM, Strain/Indicator: TA1535, Metabolic Activation: NONE, Method: STANDARD PLATE inactive; negative | Test System: AMES SALMONELLA TYPHIMURIUM, Strain/Indicator: TA1535, Metabolic Activation: RAT, LIVER, S-9, KANECHLOR 400, Method: STANDARD PLATE inactive; negative | Test System: AMES SALMONELLA TYPHIMURIUM, Strain/Indicator: TA1537, Metabolic Activation: NONE, Method: STANDARD PLATE inactive; negative | Test System: AMES SALMONELLA TYPHIMURIUM, Strain/Indicator: TA1537, Metabolic Activation: RAT, LIVER, S-9, KANECHLOR 400, Method: STANDARD PLATE inactive; negative | Test System: AMES SALMONELLA TYPHIMURIUM, Strain/Indicator: TA1538, Metabolic Activation: NONE, Method: STANDARD PLATE inactive; negative | Test System: AMES SALMONELLA TYPHIMURIUM, Strain/Indicator: TA1538, Metabolic Activation: RAT, LIVER, S-9, KANECHLOR 400, Method: STANDARD PLATE inactive; negative

O=C(OCC(COC(=O)c1ccccc1)(COC(=O)c1ccccc1)COC(=O)c1ccccc1)c1ccccc1
inactive: Test System: AMES SALMONELLA TYPHIMURIUM, Strain/Indicator: TA97, Metabolic Activation: HAMSTER, LIVER, S-9, AROCLOR 1254 (10 OR 30%), Method: PREINCUBATION inactive; negative | Test System: AMES SALMONELLA TYPHIMURIUM, Strain/Indicator: TA97, Metabolic Activation: NONE, Method: PREINCUBATION inactive; negative | Test System: AMES SALMONELLA TYPHIMURIUM, Strain/Indicator: TA97, Metabolic Activation: RAT, LIVER, S-9, AROCLOR 1254 (10 OR 30%), Method: PREINCUBATION inactive; negative | Test System: AMES SALMONELLA TYPHIMURIUM, Strain/Indicator: TA98, Metabolic Activation: HAMSTER, LIVER, S-9, AROCLOR 1254 (10 OR 30%), Method: PREINCUBATION inactive; negative | [1] inactive; negative | Test System: AMES SALMONELLA TYPHIMURIUM, Strain/Indicator: TA98, Metabolic Activation: RAT, LIVER, S-9, AROCLOR 1254 (10 OR 30%), Method: PREINCUBATION inactive; negative | Test System: AMES SALMONELLA TYPHIMURIUM, Strain/Indicator: TA100, Metabolic Activation: HAMSTER, LIVER, S-9, AROCLOR 1254 (10 OR 30%), Method: PREINCUBATION inactive; negative | [4] inactive; negative | Test System: AMES SALMONELLA TYPHIMURIUM, Strain/Indicator: TA100, Metabolic Activation: RAT, LIVER, S-9, AROCLOR 1254 (10 OR 30%), Method: PREINCUBATION inactive; negative | Test System: AMES SALMONELLA TYPHIMURIUM, Strain/Indicator: TA1535, Metabolic Activation: HAMSTER, LIVER, S-9, AROCLOR 1254 (10 OR 30%), Method: PREINCUBATION inactive; negative | [5] inactive; negative | Test System: AMES SALMONELLA TYPHIMURIUM, Strain/Indicator: TA1535, Metabolic Activation: RAT, LIVER, S-9, AROCLOR 1254 (10 OR 30%), Method: PREINCUBATION inactive; negative | Test System: AMES SALMONELLA TYPHIMURIUM, Strain/Indicator: TA1537, Metabolic Activation: HAMSTER, LIVER, S-9, AROCLOR 1254 (30%), Method: PREINCUBATION inactive; negative | [6] inactive; negative | Test System: AMES SALMONELLA TYPHIMURIUM, Strain/Indicator: TA1537, Metabolic Activation: RAT, LIVER, S-9, AROCLOR 1254 (30%), Method: PREINCUBATION inactive; negative

Cc1n[nH]c(=O)[nH]c1=O
inactive: Test System: AMES SALMONELLA TYPHIMURIUM, Strain/Indicator: TA98, Metabolic Activation: MAIZE SEEDLING, S-14, Method: PREINCUBATION inactive; negative | Test System: AMES SALMONELLA TYPHIMURIUM, Strain/Indicator: TA98, Metabolic Activation: MOUSE, LIVER, S-9, Method: PREINCUBATION inactive; negative | [1] inactive; negative | Test System: AMES SALMONELLA TYPHIMURIUM, Strain/Indicator: TA100, Metabolic Activation: MAIZE SEEDLING, S-14, Method: PREINCUBATION inactive; negative | Test System: AMES SALMONELLA TYPHIMURIUM, Strain/Indicator: TA100, Metabolic Activation: MOUSE, LIVER, S-9, Method: PREINCUBATION inactive; negative | [4] inactive; negative | [5] inactive; negative | [6] inactive; negative | Test System: AMES SALMONELLA TYPHIMURIUM, Strain/Indicator: TA1538, Metabolic Activation: NONE, Method: PREINCUBATION inactive; negative
